Laboratory results reported in patent EP1985629A1, “Pro-apoptotic molecules and therapeutic uses thereof” (UNIVERSITA DEGLI STUDI DI GENOVA, priority 2007, dated 2008).
Marks after values point to notes of the source that are not given here. Where a SMILES comes first, the peptide text is derived from it. [ ]: non-standard residue; d: D form. Aib = CC(C)(N)C(=O)O

Tests used:
Assay type in all cases: cell-based, human
caspase 9 = experiment: Caspase 9 activation (FITC-LEHD-FMK, FACS analysis); conditions: 48 h
Protocol: The activation of caspase-9 (mitochondrial apoptosis) and caspase-3 (activated downstream of caspase-9), was evaluated in cell lines (10^6 cells/well in a 24 wells plate) incubated with different concentrations of 072RB (1, 10 µM for 24h, 48h and 72h, in complete RPMI medium + 10% FCS at 37°C, using the caspase-9 and caspase-3 Detection Kit (Calbiochem, Darmstadt, Germany). The assay utilizes LEHD-FMK or DEVD-FMK conjugated to fluorescein-isothiocyanate (FITC) as caspase-9 or caspase-3 in situ marker. FITC-LEHD-FMK and FITC-DEVD-FMK are cell permeable, non toxic, and irreversibly bind only to activated caspase-9 or -3 in apoptotic cells. Samples were run on a flow cytometer (FACSort, Becton Dickinson) equipped with an argon ion laser exiting FITC at 488nm, At least 10^5 events were analysed for each sample using the CellQuest computer program. Data are expressed as Log green fluorescence intensity (a.u.) vs cell number. Calibration was assessed with CALIBRITE particles (Becton Dickinson) using the AutoCOMP computer program.
Cells were incubated for 24, 48 and 72 h with 072RB (10 µM) or Int (10 µM), together with FITC-LEDH-FMK or FITC-DEVD-FMK, to detect caspase 9 and caspase 3 activation, respectively (FACS analysis). […] Furthermore, caspase 3, a downstream substrate of caspase 9, was progressively activated at increasing incubation times with 072RB. After 24 h of incubation 30% of U937, 35% of Namalwa, 22% of Jurkat cells, respectively, were positive for activated caspase 3; after 72 h of incubation 70% of U937, 60% of Namalwa, and 35% of Jurkat cells, respectively, had activated caspase 3. On the contrary, a negligible fraction of cells incubated with the Int peptide (1-3%), a % similar to that observed in untreated cells, expressed activated caspase 3.

[1] = system: AML: acute myeloid leukaemia; experiment: Ex vivo bone marrow cells, flow cytometry DNA/SSC analysis of apoptosis; conditions: for percentage of early/late apoptotic cells: AML, analysed day 4
Protocol: (§1) For experiments with primary cells of acute lymphoblastic leukaemia (ALL), […] Acute Myeloid Leukaemia (AML), fresh samples of bone marrow aspirates were from patients who had at least 80% blasts among their mononuclear cells. Normal hematopoietic cells (NBM) were obtained from healthy volunteers. Mononuclear cells were isolated from the samples by Ficoll density-gradient centrifugation. Primary cells were cultured as above. The collection of human specimens was performed after informed consent of the patient during diagnostic procedure. Viability was determined by Facs analysis: PI emission fluorescence.
(§2) Cells were harvested and incubated with 30 µg/ml PI (Sigma Chemical Co.) and 0.5 mg/ml RNase for 30 min at room temperature and in the dark. Flow cytometric measurements of Forward Scatter (FSC) and Side Scatter (SSC) of light emitted from the excitation laser, and of PI emission fluorescence, were performed on a FACSCalibur (Becton Dickinson) flow cytometer. At least 10,000 events were acquired on a linear scale from each sample. Frequency distributions of DNA content and SSC were analysed for the evaluation of apoptosis at different apoptotic stages and cell cycle phases, as previously described.
(§3) Bone marrow aspirates from patients with different leukaemia types were plated in tissue culture medium supplemented with 20% FCS, treated with 072RB twice every 48 h, and followed for 4 days. They were evaluated by flow cytometry DNA/SSC analysis, In Table 3 we show the percentage of [early + late apoptotic cells], according to leukaemia type and Int or 072RB dosage. To further study sensitivity to 072RB of normal cells, peripheral blood lymphocytes (PBL) isolated from four independent healthy donors were subjected to a four-days treatment with 10 µM 072RB. Treatment was performed, as usual, with two pulses at a 48 h interval. Lymphocytes were either un-stimulated or activated by PHA. […] Comparing treated and untreated normal peripheral lymphocytes, the ratio of viable cells between the two groups was 0.87 ± 0.05 (mean ± SE) for quiescent lymphocytes and 0.82 ± 0.057 for proliferating lymphocytes. This effect of 072RB on normal lymphocytes seems especially small if we consider the effects observed in leukaemia cell lines (see supplementary information), and also the effects observed in AML cells from ex vivo experiments: 0.55 ± 0.145 (mean ± SE). Table 3: Effect of 072RB on haematological malignancies (AML: acute myeloid leukaemia; ALL: acute lymphoid leukaemia; NBM: normal bone marrow): percentage of early/late apoptotic cells. Mean values from duplicate experiments are reported. The difference between the two individual values never exceeded 15% of the mean value. Ex vivo isolated cells were treated with either Int or 072RB at day 0, 2 (5, 10 µM), at day 0, 1, 2, 3 (1, 3 µM) and analysed after PI staining at day 4.

NBM: normal bone marrow = experiment: as above; conditions: analysed day 4
Protocol: as §1, §2, §3

[2] = system: ALL: acute lymphoid leukaemia; experiment: as above; conditions: analysed day 4
Protocol: as §1, §2, §3

[3] = FAB M0 (control 33), 5 µM at day 0, 2
[4] = FAB M0 (control 33), 10 µM at day 0, 2
[5] = FAB M3 (control 23), 5 µM at day 0, 2
[6] = FAB M3 (control 23), 10 µM at day 0, 2
[7] = NBM sample with control 15, treated with 15 µM (footnote *), printed in the 10 µM column
[8] = NBM sample with control 39, 10 µM at day 0, 2
[9] = ALL, Pro-B (control 32), 5 µM at day 0, 2
[10] = ALL, Pro-B (control 32), 10 µM at day 0, 2

Compound | fraction of cells expressing activated caspase 9 (caspase 9; Jurkat, 10 µM) | fraction of cells expressing activated caspase 9 (caspase 9; Namalwa, 10 µM) | fraction of cells expressing activated caspase 9 (caspase 9; U937, 10 µM) | percentage of early/late apoptotic cells [1, 3] [percentage] | percentage of early/late apoptotic cells [1, 4] [percentage] | percentage of early/late apoptotic cells [1, 5] [percentage] | percentage of early/late apoptotic cells [1, 6] [percentage] | percentage of early/late apoptotic cells (NBM: normal bone marrow; [7]) | percentage of early/late apoptotic cells (NBM: normal bone marrow; [8]) [percentage] | percentage of early/late apoptotic cells [2, 9] [percentage] | percentage of early/late apoptotic cells [2, 10] [percentage] | further results
CC[C@H](C)[C@H](NC(=O)[C@H](CCCNC(=N)N)NC(=O)[C@H](CCCNC(=N)N)NC(=O)[C@H](CC(C)C)NC(=O)[C@H](CCC(=O)O)NC(=O)[C@H](CCC(N)=O)NC(=O)C(C)(C)NC(=O)[C@@H](NC(=O)[C@H](Cc1ccc(O)cc1)NC(=O)[C@@H](NC(=O)[C@H](CCC(=O)O)NC(=O)[C@@H]1CCCN1C(=O)[C@H](CCCNC(=N)N)NC(=O)[C@H](CCSC)NC(=O)[C@@H](N)CC(=O)O)[C@@H](C)CC)[C@@H](C)CC)C(=O)NCC(=O)N[C@@H](CC(=O)O)C(=O)N[C@@H](C)C(=O)N[C@@H](Cc1ccccc1)C(=O)N[C@@H](CC(N)=O)C(=O)NC(C)(C)C(=O)N[C@@H](Cc1ccc(O)cc1)C(=O)N[C@@H](CCCCN)C(=O)N[C@@H](CCCCN)C(=O)N[C@@H](Cc1c[nH]c2ccccc12)C(=O)N[C@@H](CCCCN)C(=O)N[C@@H](CCSC)C(=O)N[C@@H](CCCNC(=N)N)C(=O)N[C@@H](CCCNC(=N)N)C(=O)N[C@@H](CC(N)=O)C(=O)N1CCC[C@H]1C(=O)N[C@@H](Cc1ccccc1)C(=O)N[C@@H](Cc1c[nH]c2ccccc12)C(=O)N[C@H](C(=O)N[C@@H](CCCCN)C(=O)N[C@H](C(=O)N[C@@H](CCC(N)=O)C(=O)N[C@@H](CCCNC(=N)N)C(N)=O)[C@@H](C)CC)[C@@H](C)CC [Peptide 072RB] (H-DMRPEIYI[Aib]QELRRIGDAFN[Aib]YKKWKMRRNPFWIKIQR-NH2; N-terminus and C-terminus assumed) | 10-33% | 15-35% | 30-65% | 36 | 42 | 64 | 82 | 21* percentage | 39 | 56 | 63 | ratio of viable cells, treated versus untreated ([1]; AML cells from ex vivo experiments, mean ± SE): 0.55 ± 0.145; percentage of early/late apoptotic cells ([1]; FAB M0-M1 (control 14), 5 µM at day 0, 2): 22 percentage; percentage of early/late apoptotic cells ([1]; FAB M0-M1 (control 14), 10 µM at day 0, 2): 40 percentage; percentage of early/late apoptotic cells ([1]; FAB M2 (control 24), 5 µM at day 0, 2): 66 percentage; percentage of early/late apoptotic cells ([1]; FAB M4-M5 (control 50), 5 µM at day 0, 2): 75 percentage; percentage of early/late apoptotic cells ([1]; FAB M6 (control 15), 10 µM at day 0, 2): 67 percentage; percentage of early/late apoptotic cells ([2]; ALL sample with control 40, 5 µM at day 0, 2): 42 percentage; percentage of early/late apoptotic cells ([2]; ALL sample with control 40, 10 µM at day 0, 2): 45 percentage; percentage of early/late apoptotic cells ([2]; ALL sample with control 43, 5 µM at day 0, 2): 67 percentage; percentage of early/late apoptotic cells ([2]; ALL sample with control 52, 5 µM at day 0, 2): 60 percentage; percentage of early/late apoptotic cells ([2]; ALL sample with control 52, 10 µM at day 0, 2): 80 percentage
KKWKMRRNPFWIKIQR [Int, internalisation tag, a modified Q50P 16 aa Antennapedia IIIrd α-helix, reference compound] | 1.3% | 2.0% | 1.5% | 32 | 38 | 26 | 28 | 18* percentage | 37 | 32 | 43 | –
